Assay results reported in PMC11009625, “Antibiotic class with potent in vivo activity targeting lipopolysaccharide synthesis in Gram-negative bacteria” (Proceedings of the National Academy of Sciences of the …, 2024).
≈ marks a conversion by molar mass, not a printed value. Read-outs that look alike come from different tables or passages of the source.

What was measured:
E. coli ATCC 25922 = assay: MIC (CLSI broth microdilution), wild-type E. coli; format: cell-based; conditions: Escherichia coli, ATCC25922
Description: (§1) Minimum inhibitory concentration (MIC) values were determined according to the Clinical Laboratory Standards Institute guidelines. Frequency of resistance was determined by plating ~5 × 10^8 bacterial cells on agar-solidified media plates containing test compound at concentrations corresponding to four times the measured solid-media MIC of the strains. Colonies were counted after 24 h, restreaked onto media containing the same concentration of compound, and the MIC remeasured against the assayed compound. Genomic DNA from isolated clones was sequenced by paired-end sequencing on an Illumina MiSeq device. Complete experimental details available in SI Appendix. […]
(§2) Minimum inhibitory concentration (MIC) determination. Broth microdilution and agar dilution
(§3) MIC assays were conducted according to CLSI guidelines (M07-2012). Appropriate inoculation
(§4) suspension density was assessed using a Sensititre Nephelometer with a Sensititre 0.5
McFarland Standard. […]

[1] = system: E. coli ATCC 25922 ΔtolC efflux mutant; assay: MIC, E. coli efflux mutant; format: cell-based
Description: as §1, §2, §3

K. pneumoniae ATCC 13883 = assay: MIC, K. pneumoniae, with and without 50% human serum; format: cell-based
Description: as §1, §2, §3, §4
McFarland Standard. Serum MICs were conducted in 50% heat-inactivated pooled human

in vitro = format: cell-based
Description: Minimum inhibitory concentration (MIC) determination. Broth microdilution and agar dilution MIC assays were conducted according to CLSI guidelines (M07-2012). Appropriate inoculation suspension density was assessed using a Sensititre Nephelometer with a Sensititre 0.5 McFarland Standard. Serum MICs were conducted in 50% heat-inactivated pooled human serum (Sigma-Aldrich). Serum was heated to 56 °C for one hour and then filtered using a 0.2 µm […]
Strain construction. The efflux-defective P. mirabilis strain EN1490 was constructed using EZ-Tn5 <KAN-2> Transposome mutagenesis with TypeOne Restriction Inhibitor. Approximately 3000 independent clones were screened for increased susceptibility to chloramphenicol (8 mg/L), yielding 2 independent clones with insertions in the gene tolC. […]

HepG2 cells = assay: HepG2 cytotoxicity (72 h); format: cell-based
Description: (§5) Thermodynamic solubility was assessed by dissolving 2 to 3 mg of test compound to equilibrium in 100 mM KPO4-buffer, pH 7.4. The metabolic stability assay was performed in the presence of human and mouse liver microsomes by measurement of test compounds disappearance over time (60 min). The plasma protein binding assay, including stability estimation, was performed using the RED devices (Thermo Fisher Scientific) in the presence of human and mouse plasma. All samples from the in vitro ADME studies were quantified by liquid chromatography-triple quadrupole mass spectrometry (LC–MS/MS). The assays were performed as previously described ([36]) and the details are available in SI Appendix. Cytotoxicity was assessed by incubation of test compounds in the presence of HepG2 cells for 72 h as previously described ([37]).

[2] = Metabolic stability in mouse liver microsomes; format: in vitro ADME; conditions: pH 7.4
Description: as §5, with “([37]). […]” for “([37]).”
(§6) The plate is then sealed, centrifuged and the supernatant is analysed by liquid
chromatography coupled to triple quadrupole mass spectrometry (LC-MS/MS).
Metabolic stability in the presence of human and animal liver microsomes. Metabolic stability
was determined in 0.5 mg/ml human or animal liver microsomes at a compound concentration
of 1 μM in 100 mM KPO4 buffer pH 7.4 in a total incubation volume of 500 μl. The reaction was
initiated by addition of 1 mM NADPH. At various incubation times, i.e. at 0, 5, 10, 20, 40 and 60
min, a sample was withdrawn from the incubation and the reaction was terminated by addition
of cold acetonitrile with warfarin as an internal standard. […]
(§7) Liquid chromatography coupled to triple quadrupole mass spectrometry (LC-MS/MS). The test
(§8) compounds were optimized on a Waters Acquity UPLC XEVO TQ-S micro system (Waters Corp.)
(§9) operating in multiple reaction monitoring (MRM) mode with positive or negative electrospray
(§10) ionization. Compounds were optimized by using the QuanOptimize software (Waters Corp.).
(§11) For chromatographic separation, a C18 BEH 1.7 µm column was used, with a general gradient of
(§12) 1% to 90% of mobile phase B over a total running time of 2 min. Mobile phase A consisted of
(§13) 5% acetonitrile and 0.1% formic acid in purified water, and mobile phase B of 0.1% formic acid
(§14) in 100% acetonitrile. The flow rate was set to 0.5 ml/min and 5 µL of the sample was injected.

Thermodynamic solubility = format: physicochemical; conditions: 37 °C, aqueous buffer, thermodynamic from solid; 100 mM KPO4-buffer, pH 7.4
Description: as §5, with “([37]). […]” for “([37]).”
as §6
chromatography coupled to triple quadrupole mass spectrometry (LC-MS/MS). […]
Thermodynamic solubility. Thermodynamic solubility assay utilized solid form of a test
compound. Solid test compound (~2-3 mg) was weighed in a glass HPLC vial and 100 mM KPO4-
buffer, pH 7.4 was added to give a theoretical max concentration if everything is dissolved of ~5-
6 mg/ml. The vial was incubated at 900 rpm, 37 °C in a rotational shaker for 24h. After the
incubation an aliquot (200 µl) was transferred to a glass insert and centrifuged at 10 000xg, 37 °C
for 20 min to separate any solid material from the solution. The supernatant was transferred to
a new HPLC vial and analysed by liquid chromatography coupled to triple quadrupole mass
as §7, §8, §9, §10, §11, §12, §13, §14

[3] = read-out: MIC E. coli ATCC 25922 Wild-type
[4] = Klebsiella pneumoniae, ATCC13883, read-out: MIC K. pneumoniae ATCC 13883 Wild-type
[5] = Homo sapiens, HepG2, 72 h, read-out: HepG2 viability IC50, 72 h
[6] = Klebsiella pneumoniae, ATCC13883, read-out: MIC K. pneumoniae ATCC 13883 In 50% human serum
[7] = ATCC 25922 (Table S4), read-out: MIC E. coli EN0001

| Structure (SMILES) | MIC (E. coli ATCC 25922; [3]) | MIC E. coli ATCC 25922 ΔtolC efflux mutant [1] | MIC (K. pneumoniae ATCC 13883; [4]) | hemolysis (in vitro) | IC50 (HepG2 cells; [5]) | MIC (K. pneumoniae ATCC 13883; [6]) | microsomal CLint at 1 µM [2] | solubility thermodynamic at 24 h (Thermodynamic solubility) | MIC (E. coli ATCC 25922; [7]) | MIC (K. pneumoniae ATCC 13883; Klebsiella pneumoniae, ATCC13883; read-out: MIC K. pneumoniae ATCC 13883 In 50% human serum) | MIC (K. pneumoniae ATCC 13883; Klebsiella pneumoniae, ATCC13883; read-out: MIC K. pneumoniae ATCC 13883 Wild-type) | IC50 (HepG2 cells; Homo sapiens, HepG2, 72 h, read-out: HepG2 viability IC50) | IC50 (HepG2 cells; read-out: HepG2 viability IC50, 72 h) |
| --- | --- | --- | --- | --- | --- | --- | --- | --- | --- | --- | --- | --- | --- |
| CC(=O)N1CCc2cc(S(=O)(=O)N3CCN(c4cccc(C(F)(F)F)c4)CC3)ccc21 [AZ1, reference compound] | > 64 µg/mL | 2 µg/mL (≈ 4.41 µM) | > 64 µg/mL | 2.1% | 22.5 µM |  |  |  |  |  |  |  |  |
| CN(c1ccc(CNCCN)cc1C(=O)Nc1ccc(S(=O)(=O)N2CCN(c3cc(Cl)cc(Cl)c3)CC2)cc1)S(C)(=O)=O [EBL-3025] | 1 µg/mL (≈ 1.49 µM) | ≤0.125 µg/mL | 0.5 µg/mL (≈ 0.747 µM) | 1.98% | 49 µM | 0.5 µg/mL (≈ 0.747 µM) | 31 µL/min/mg | 4 µM (≈ 2.68 µg/mL) |  |  |  |  |  |
| Cc1cc(C#N)nc(N2CCN(S(=O)(=O)c3ccc(NC(=O)c4ccccc4N(C)S(C)(=O)=O)cc3)CC2)n1 [EBL-3339] | 1 µg/mL (≈ 1.76 µM) | ≤0.125 µg/mL | 0.5 µg/mL (≈ 0.878 µM) | 0.05% | 29 µM | 2 µg/mL (≈ 3.51 µM) | 625 µL/min/mg | 1.2 µM (≈ 0.684 µg/mL) |  |  |  |  |  |
| Cc1cc(C#N)nc(N2CCN(S(=O)(=O)c3ccc(NC(=O)c4cc(CNCCCN)ccc4N(C)S(C)(=O)=O)cc3)CC2)n1.Cl.Cl [EBL-3599] | 2 µg/mL | ≤0.125 µg/mL |  | 0.06% |  |  | < 5 µL/min/mg | 1530 µM | 2 µg/mL | 0.25 µg/mL | 1 µg/mL | 55 µM |  |
| Cc1cc(C#N)nc(N2CCN(S(=O)(=O)c3ccc(NC(=O)c4cc(CN5CC(CN)C5)ccc4N(C)S(C)(=O)=O)cc3)CC2)n1 [EBL-3647] | 2 µg/mL (≈ 2.99 µM) | ≤0.125 µg/mL | 0.5 µg/mL (≈ 0.749 µM) | 0.13% | 54 µM | 0.25 µg/mL (≈ 0.374 µM) | < 5 µL/min/mg | 1090 µM (≈ 728 µg/mL) | 2 µg/mL (≈ 2.99 µM) |  |  |  |  |
| CN(c1ccccc1C(=O)Nc1ccc(S(=O)(=O)N2CCCCC2)cc1)S(C)(=O)=O [JEDI-852] | > 64 µg/mL | 4 µg/mL (≈ 8.86 µM) | > 64 µg/mL | 0.03% | > 32 µM |  |  |  |  |  |  |  | > 64 µM |
| CN(c1ccccc1C(=O)Nc1ccc(S(=O)(=O)N2CCN(c3cccc(C(F)(F)F)c3)CC2)cc1)S(C)(=O)=O [JEDI-1444] | 2 µg/mL (≈ 3.35 µM) | ≤0.125 µg/mL | 2 µg/mL (≈ 3.35 µM) | 0.02% | > 64 µM | 32 µg/mL (≈ 53.6 µM) | 126 µL/min/mg | 0.21 µM (≈ 0.125 µg/mL) |  |  |  |  |  |
